Values joined by “and” are separate entries in the source; they are usually repeats but may differ in a detail not shown here. Identical values can stand only once. Toxic doses and inconclusive results are not listed. No stated cut-off is given here; in the data, active means T/C of 150% or more; inactive means T/C below 125%. Peptide text beside a SMILES is read from it. * marks the point of attachment. Cbz = O=C(OCc1ccccc1)*; Bn = c1ccc(C*)cc1
Tested on: L1210 leukemia ip in BDF1 mice, survival T/C
Assay: NCI In Vivo Anticancer Drug Screen. Data for tumor model L1210 Leukemia (intraperitoneal) in B6D2F1 (BDF1) mice
Settings: endpoint: mean survival time, higher = longer survival
How it was run: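 Antitumor effect is assessed in tumor-bearing animals. Survival in the compound arm is compared with a vehicle-dosed control arm and expressed as their quotient.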

[1] = dose: 12.5 mg/kg/injection, schedule: Q01DX009 (ip), vehicle: saline with Tween-80
[2] = dose: 100.0 mg/kg/injection, schedule: Q04DX003 (ip), vehicle: Klucel (hydroxypropylcellulose) (HPC)
[3] = dose: 200.0 mg/kg/injection, schedule: Q04DX003 (ip), vehicle: Klucel (hydroxypropylcellulose) (HPC)
[4] = dose: 400.0 mg/kg/injection, schedule: Q04DX003 (ip), vehicle: Klucel (hydroxypropylcellulose) (HPC)
[5] = dose: 100.0 mg/kg/injection, schedule: Q01DX001 (ip), vehicle: saline
[6] = dose: 200.0 mg/kg/injection, schedule: Q01DX001 (ip), vehicle: saline
[7] = dose: 400.0 mg/kg/injection, schedule: Q01DX001 (ip), vehicle: saline
[8] = dose: 100.0 mg/kg/injection, schedule: Q04DX003 (ip), vehicle: saline

Measured: T/C

CN=C([Se])NC
inactive: dose: 3.13 mg/kg/injection, schedule: Q01DX009 (ip), vehicle: saline with Tween-80 106 % of control | dose: 3.13 mg/kg/injection, schedule: Q04DX002 (ip), vehicle: saline with Tween-80 98 % of control | dose: 6.25 mg/kg/injection, schedule: Q01DX009 (ip), vehicle: saline with Tween-80 103 % of control | dose: 6.25 mg/kg/injection, schedule: Q04DX002 (ip), vehicle: saline with Tween-80 95 % of control | [1] 97 % of control | dose: 12.5 mg/kg/injection, schedule: Q04DX002 (ip), vehicle: saline with Tween-80 87 % of control

CCOC(=O)c1c(C)nc(C)c(C(=O)OCC)c1-c1ccc(N(C)C)cc1
inactive: dose: 25.6 mg/kg/injection, schedule: Q04DX002 (ip), vehicle: saline with Tween-80 101 % of control | dose: 64.0 mg/kg/injection, schedule: Q04DX002 (ip), vehicle: saline with Tween-80 97 % of control

CC1=CC(C)(C)NC(=S)N1c1ccc(O)cc1
inactive: dose: 75.0 mg/kg/injection, schedule: Q01DX009 (ip), vehicle: saline with Tween-80 92 % of control | dose: 150.0 mg/kg/injection, schedule: Q01DX009 (ip), vehicle: saline with Tween-80 101 % of control | dose: 300.0 mg/kg/injection, schedule: Q01DX009 (ip), vehicle: saline with Tween-80 90 % of control

O=[N+]([O-])c1ccc(N/N=C/C#Cc2ccccc2)c([N+](=O)[O-])c1
inactive: dose: 50.0 mg/kg/injection, schedule: Q04DX002 (ip), vehicle: saline with Tween-80 88 % of control

Cc1ccc2nc3nc(-c4ccccc4)c(-c4ccccc4)nc3nc2c1
inactive: dose: 75.0 mg/kg/injection, schedule: Q01DX001 (ip), vehicle: other 93 % of control | dose: 150.0 mg/kg/injection, schedule: Q01DX001 (ip), vehicle: other 94 % of control | dose: 300.0 mg/kg/injection, schedule: Q01DX001 (ip), vehicle: other 89 % of control

Clc1nc(Nc2ccccc2)nc(Nc2ccccc2)n1
inactive: [2] 96 % of control | [3] 93 % of control | [4] 95 % of control

O=C1CCC2OC(=O)C3CCCC1C23 (stereo not given)
inactive: [5] 103 % of control | [6] 97 % of control | [7] 101 % of control

CCCCOP(=O)(OCCCC)OC(C)C(C)=O (stereo not given)
inactive: [5] 95 % of control | [8] 102 % of control | [6] 104 % of control | dose: 200.0 mg/kg/injection, schedule: Q04DX003 (ip), vehicle: saline 98 % of control | [7] 101 % of control | dose: 400.0 mg/kg/injection, schedule: Q04DX003 (ip), vehicle: saline 90 % of control

O=C(O)CCC(=O)c1ccc2sc3ccccc3c2c1
inactive: dose: 25.0 mg/kg/injection, schedule: Q01DX009 (ip), vehicle: Klucel (hydroxypropylcellulose) (HPC) 106 % of control | dose: 50.0 mg/kg/injection, schedule: Q01DX009 (ip), vehicle: Klucel (hydroxypropylcellulose) (HPC) 100 % of control | dose: 100.0 mg/kg/injection, schedule: Q01DX009 (ip), vehicle: Klucel (hydroxypropylcellulose) (HPC) 97 % of control and 106 % of control | [2] 98 % of control | [3] 103 % of control | [4] 89 % of control

O=C(NC(CSCc1ccccc1)C(=O)NC(Cc1ccc(O)cc1)C(=O)O)OCc1ccccc1 (stereo not given) (Cbz-Cys(Bn)-Tyr-OH; configuration not given here)
inactive: dose: 100.0 mg/kg/injection, schedule: Q01DX009 (ip), vehicle: gum acacia 95 % of control | dose: 100.0 mg/kg/injection, schedule: Q04DX003 (ip), vehicle: gum acacia 103 % of control | dose: 200.0 mg/kg/injection, schedule: Q01DX009 (ip), vehicle: gum acacia 95 % of control | dose: 200.0 mg/kg/injection, schedule: Q04DX003 (ip), vehicle: gum acacia 103 % of control | dose: 400.0 mg/kg/injection, schedule: Q01DX009 (ip), vehicle: gum acacia 89 % of control | dose: 400.0 mg/kg/injection, schedule: Q04DX003 (ip), vehicle: gum acacia 92 % of control

C1CCN(CCC2CCNCC2)CC1
inactive: dose: 25.0 mg/kg/injection, schedule: Q04DX003 (ip), vehicle: saline 97 % of control | dose: 50.0 mg/kg/injection, schedule: Q04DX003 (ip), vehicle: saline 97 % of control | [8] 99 % of control and 100 % of control

CCOC(=S)NS(=O)(=O)c1ccccc1
inactive: dose: 100.0 mg/kg/injection, schedule: Q01DX001 (ip), vehicle: acetone 98 % of control | dose: 200.0 mg/kg/injection, schedule: Q01DX001 (ip), vehicle: acetone 110 % of control | dose: 400.0 mg/kg/injection, schedule: Q01DX001 (ip), vehicle: acetone 98 % of control

O=C1CC2CCCC(C1)N2Cc1ccccc1
inactive: [5] 92 % of control | [6] 97 % of control | [7] 101 % of control

N#CCCCOc1cccc(N)c1
inactive: [5] 101 % of control | [6] 101 % of control | [7] 101 % of control

Cc1cc(O)c(C(N)=O)c(=O)[nH]1
inactive: [5] 95 % of control | [6] 98 % of control | [7] 101 % of control

COc1ccc(C=NC(C)(C)CO)cc1
inactive: dose: 100.0 mg/kg/injection, schedule: Q01DX001 (ip), vehicle: steriod suspending solution 114 % of control | dose: 200.0 mg/kg/injection, schedule: Q01DX001 (ip), vehicle: steriod suspending solution 90 % of control | dose: 400.0 mg/kg/injection, schedule: Q01DX001 (ip), vehicle: steriod suspending solution 97 % of control

O=[N+]([O-])CC(OCCCc1ccccc1)C(Cl)(Cl)Cl (stereo not given)
inactive: dose: 100.0 mg/kg/injection, schedule: Q01DX009 (ip), vehicle: saline with Tween-80 107 % of control | dose: 100.0 mg/kg/injection, schedule: Q04DX003 (ip), vehicle: saline with Tween-80 93 % of control | dose: 200.0 mg/kg/injection, schedule: Q01DX009 (ip), vehicle: saline with Tween-80 109 % of control | dose: 200.0 mg/kg/injection, schedule: Q04DX003 (ip), vehicle: saline with Tween-80 104 % of control | dose: 400.0 mg/kg/injection, schedule: Q04DX003 (ip), vehicle: saline with Tween-80 91 % of control

CSc1c(Cl)c(C(Cl)(Cl)Cl)nc2ccccc12
inactive: [1] 93 % of control | dose: 25.0 mg/kg/injection, schedule: Q01DX009 (ip), vehicle: saline with Tween-80 93 % of control | dose: 50.0 mg/kg/injection, schedule: Q01DX009 (ip), vehicle: saline with Tween-80 103 % of control and 104 % of control
